# Source: patent publication US9920042B2, “Compounds for use in the treatment of mycobacterial infections” (Universite de Droit et de la Sante de Lille 2, priority 2012, dated 2018)
# Key:
# [1] = Measurement of the log D; type: physicochemical; settings: octanol/PBS (1/1); octanol/PBS at pH 7.4, triplicate
# Description: 40 μL of a solution at 10 mM in the DMSO of the sample are added to 1.96 mL of a mixture of 1/1 octanol/PBS at pH 7.4. The solution is agitated during 2 h at AT. 20 μL of each phase are added to 180 μL MeOH and analyzed by LC-MS. Each compound is evaluated in triplicate. The log D is determined as being the logarithm of the ratio of the product concentrations in the octanol and PBS phases, determined par the mass signals.
# [2] = molecular target: EthR protein (interaction with the ethA gene promoter) (Mycobacterium tuberculosis, UniProt P9WMC1); assay: Surface Plasmon Resonance test (SPR): inhibition of EthR binding to the ethA gene promoter; type: biochemical, M. tuberculosis
# Sequence of EthR protein (interaction with the ethA gene promoter) (P9WMC1 whole entry, looked up): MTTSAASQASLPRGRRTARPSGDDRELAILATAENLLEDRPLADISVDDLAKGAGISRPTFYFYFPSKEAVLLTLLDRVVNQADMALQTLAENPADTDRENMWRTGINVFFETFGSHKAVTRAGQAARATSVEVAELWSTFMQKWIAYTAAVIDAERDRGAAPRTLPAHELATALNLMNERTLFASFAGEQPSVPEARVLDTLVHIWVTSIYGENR
# Source text: Surface Plasmon Resonance test (SPR) (described in the article “Ethionamide Boosters Combining Bioisosteric Replacement and Structure-Based Drug Design to Solve Pharmacokinetic Issues in a series of potent 1,2,4-Oxadiazole EthR Inhibitors” published in 2012 in the Journal of Medicinal Chemistry)
# After having measured the ligands' affinity for the protein, it is necessary to verify that this does indeed result in the inactivation of the transcriptional repressor, thus preventing it from binding to its operon. For this, a functional test based on the principle of surface plasmon resonance is used. Surface Plasmon Resonance (SPR) makes it possible to visualize in real time the phenomena of association or dissociation between a partner immobilized on a biosensor and, a second partner injected in a continuous flow onto this surface. In the present case, the SPR technique enables the interaction between the EthR protein (analyte injected in continuous flow) and the ethA gene promoter (partner immobilized on the surface) to be visualized. Two cells are used for the test: a measuring cell onto which the so-called relevant DNA is affixed, i.e. corresponding to the ethA gene promoter, and a control cell on which is a non-relevant (thus different) DNA strand of same length, enabling the non-specific protein/DNA interactions to be removed. In a first step, the EthR protein is injected alone, until saturation, which enables a signal SIEthR corresponding to the quantity of EthR protein that has come to bind to the DNA to be measured. In a second step, the experience is reiterated in the presence of a potential ligand at different concentrations. If the compound binds to the EthR, thus preventing it from coming to bind on the DNA, a diminution of the response of the dose-dependent signal (SIEthR+lig) is observed.
# By using the equation hereafter, it is possible to calculate for each concentration a percentage for the inhibition of the ligand under examination:
# By representing the variation of the inhibition percentage depending on the ligand concentration, a value for IC50 can be deduced.
# [3] = molecular target: EthR protein (Mycobacterium tuberculosis, UniProt P9WMC1); assay: TSA test (Thermal Shift Assay), fluorescence with Sypro Orange; type: binding, M. tuberculosis; settings: melting temperature shift of EthR with ligand vs protein alone
# Sequence of EthR protein (P9WMC1 whole entry, looked up): as above
# [4] = Measurement of the solubility; type: physicochemical; settings: aqueous buffer, kinetic from dmso stock; PBS at pH 7.4, 24 h at AT, LC-MS ratio PBS/MeOH; read-out: Solubilité
# Description: Measurement of the Solubility
# 40 μL of a solution at 10 mM in DMSO of the sample are added at 1.96 mL MeOH or PBS at pH 7.4. The samples are then agitated during 24 h at AT, centrifuged during 5 min and then filtrated on filters of 0.45 μm size. 20 μL of each solution are then added to 180 μL MeOH and then analyzed by LC-MS. The solubility is determined as ratio of the surfaces of the mass signals PBS/MeOH.
# [5] = test system: M. tuberculosis alone or macrophages infected by M. tuberculosis; assay: Potentiation of ethionamide cell test (High Content Screening); type: cell-based; settings: ligand concentration potentiating ten times the activity of ethionamide; ethionamide constant at 0.1 μg/mL (1/10th of its CMI99); read-out: EC50
compound,measurement,setting,value
"Cc1nc(-c2ccc(S(=O)(=O)NCCC(C)C)cc2)cs1 [Compound 6, 4-(2-methylthiazol-4-yl)-N-isopentyl benzene sulfonamide]",logD at 2 h,[1],3.55
same,IC50,[2],4900 ± 100 nM
same,ΔTm,[3],6.1 °C
same,solubility at 24 h,[4],20 µM
same,EC50,[5],5700 nM
Cc1nc(-c2ccc(S(=O)(=O)NCCC(F)(F)F)cc2)cs1 [Compound 24],logD at 2 h,[1],3.12
same,IC50,[2],550 ± 20 nM
same,ΔTm,[3],8.5 °C
same,solubility at 24 h,[4],41.4 µM
same,EC50,[5],290 nM
"CC(C)OC(=O)Cc1nc(-c2ccc(S(=O)(=O)NCCC(F)(F)F)cc2)cs1 [Compound 35, 2-(4-(4-(N-(3,3,3-trifluoropropyl)sulfamoyl)phenyl)thiazol-2-yl) isopropyl acetate]",logD at 2 h,[1],3.76
same,ΔTm,[3],11.6 °C
same,solubility at 24 h,[4],2.8 µM
same,EC50,[5],300 nM
"CC(C)CCCc1nc(-c2ccc(S(=O)(=O)NCCC(F)(F)F)cc2)cs1 [Compound 38, 4-(2-(4-methylpentyl)thiazol-4-yl)-N-(3,3,3-trifluoropropyl)benzene sulfonamide]",logD at 2 h,[1],> 4
same,ΔTm,[3],12.4 °C
same,solubility at 24 h,[4],< 1 µM
same,EC50,[5],390 nM
"Cc1nc(-c2ccc(C(=O)NCCC(F)(F)F)cc2)cs1 [Compound 43, 4-(2-methylthiazol-4-yl)-N-(3,3,3-trifluoropropyl)benzamide]",logD at 2 h,[1],2.82
same,IC50,[2],480 ± 60 nM
same,ΔTm,[3],11.4 °C
same,solubility at 24 h,[4],46.9 µM
same,EC50,[5],83 nM
"CC(C)Cc1nc(-c2ccc(C(=O)NCCC(F)(F)F)cc2)cs1 [Compound 49, 4-(2-isobutylthiazol-4-yl)-N-(3,3,3-trifluoropropyl)benzamide]",logD at 2 h,[1],3.91
same,IC50,[2],440 ± 10 nM
same,ΔTm,[3],12.6 °C
same,solubility at 24 h,[4],4.4 µM
same,EC50,[5],< 40 nM
"O=C(NCCC(F)(F)F)c1ccc(-c2csc(-c3ccncc3)n2)cc1 [Compound 57, 4-(2-(pyridin-4-yl)thiazol-4-yl)-N-(3,3,3-trifluoropropyl)benzamide]",logD at 2 h,[1],3.07
same,ΔTm,[3],12.6 °C
same,solubility at 24 h,[4],29 µM
same,EC50,[5],< 10 nM
"CCc1cc(-c2nc(-c3ccc(C(=O)NCCC(F)(F)F)cc3)cs2)ccn1 [Compound 58, 4-(2-(2-ethylpyridin-4-yl)thiazol-4-yl)-N-(3,3,3-trifluoropropyl)benzamide]",logD at 2 h,[1],3.95
same,ΔTm,[3],13.3 °C
same,solubility at 24 h,[4],3.3 µM
same,EC50,[5],< 10 nM
